In paper PMC8416020 (eLife, 2021):
Several values for one entry are separate records, joined by “and”; a condition that tells them apart may be missing. Identical values can stand only once. Like-named read-outs stand apart in the source and are kept apart here.

T1: GHSR (Homo sapiens, UniProt Q92847)
T1 chain: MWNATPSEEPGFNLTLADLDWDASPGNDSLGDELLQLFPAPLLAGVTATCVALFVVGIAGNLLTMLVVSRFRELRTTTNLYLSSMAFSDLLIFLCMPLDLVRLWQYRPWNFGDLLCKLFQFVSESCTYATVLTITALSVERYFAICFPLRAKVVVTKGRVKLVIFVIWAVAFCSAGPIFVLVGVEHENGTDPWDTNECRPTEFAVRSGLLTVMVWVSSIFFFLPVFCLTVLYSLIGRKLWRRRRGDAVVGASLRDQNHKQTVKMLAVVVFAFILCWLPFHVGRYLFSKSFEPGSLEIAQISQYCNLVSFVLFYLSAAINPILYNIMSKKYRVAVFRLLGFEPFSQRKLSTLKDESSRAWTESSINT


Tests used:
[1] = system: GHSR labeled with 7H4MC-ethylglycine at F272^6.44; assay: Hydration parameter H from 7H4MC fluorescence emission; format: biochemical, human; conditions: for H parameter: 6.44, ligand 10 µM, POPC:POPG nanodiscs, 15°C, ex 320 nm
Excerpt: (§1) We then investigated whether the fluorescence properties of 7H4MC-ethylglycine could report on the local hydration features of GHSR. To this end, we analyzed the 7H4MC emission profile for each of the positions considered. An excitation wavelength of 320 nm was systematically used to excite the neutral form of the fluorophore ([Amaro et al., 2015]). The emission spectra were deconvoluted into their separate components using the procedure initially described ([Amaro et al., 2015]). A hydration parameter H was then determined that corresponded to the sum of the contributions of the anionic and tautomer forms. This parameter is an indicator of the extent of hydration at the position considered, as the higher the H parameter the higher local hydration ([Amaro et al., 2015]). A difference in the H parameter inferred for the 7H4MC probe at the different positions of the apo GHSR was observed depending on the position considered (Figure 2—figure supplement 1, 2).
(§2) Figure 2. Local hydration of growth hormone secretagogue receptor (GHSR) as a function of ligands. […] All ligands were used at a 10 µM concentration. In all cases, the data represents the mean value ± SD of three experiments. Statistical analyses are provided in […]—figure supplement 2 and 4. Figure 2—source data 1. H parameter for GHSR and its mutants. Figure 2—figure supplement 1. Emission spectra of L-(7-hydroxycoumarin-4-yl) (7H4MC)-ethylglycine incorporated into isolated growth hormone secretagogue receptor (GHSR). The spectra were recorded in the absence of ligand. The labeling positions are given in a snake-like plot of GHSR ([Shiimura et al., 2020]) (A) (red: positions deleterious to GHSR function; green: positions considered in this work), and then indicated in each panel (B–F). The excitation wavelength was set to 320 nm with an emission intensity recorded between 340 and 600 nm. The gray curve represents the experimental emission spectrum (exp). The red, blue, green, and magenta spectra represent the decomposition of the experimental spectrum into its neutral (N), complexed (C), anionic (A), and tautomeric (T) components, respectively. The orange curve (fit) corresponds to sum of the individual N, C, A, and T curves. Figure 2—figure supplement 1—source data 1. 7-H4MC emission intensity of the apo GHSR mutants. [drawing 7] Figure 2—figure supplement 2. Statistical analysis of the data in Figure 2. […] Data is from Figure 2. […] Structure of the ligands used throughout this work. [drawing 9] Figure 2—figure supplement 4. Statistical analysis of the data in Figure 2. The left panels show the hydration parameter for each of the mutants in the absence or in the presence of ligands. Data are from Figure 2. The right panels show the mean difference between the apo and the ligand-loaded states for each of the mutants with multiplicity-adjusted 95% confidence intervals. [drawing 10] Figure 2—figure supplement 5. Emission spectra of L-(7-hydroxycoumarin-4-yl) (7H4MC)-ethylglycine incorporated at position 5.58 of growth hormone secretagogue receptor (GHSR) in the presence of pharmacologically distinct ligands or phosphatidylinositol-4,5-bisphosphate (PIP2). […] The excitation wavelength was set to 320 nm with an emission intensity recorded between 340 and 600 nm. The black curve represents the experimental emission spectrum (exp). The red one (fit) corresponds to sum of the individual curves after decomposition of the experimental spectrum into its neutral, complexed, anionic, and tautomeric components. Figure 2—figure supplement 5—source data 1. 7-H4MC emission intensity of the GHSR 5.58 mutant in the presence of ligands. [drawing 11] Figure 2—figure supplement 6. […]

[2] = system: GHSR labeled with 7H4MC-ethylglycine at I134^3.43; assay: as above; format: biochemical, human; conditions: ligand 10 µM, POPC:POPG nanodiscs, 15°C, ex 320 nm
Excerpt: as §1, §2

[3] = system: GHSR labeled with 7H4MC-ethylglycine at S315^7.45; assay: as above; format: biochemical, human; conditions: ligand 10 µM, POPC:POPG nanodiscs, 15°C, ex 320 nm
Excerpt: as §1, §2

[4] = system: GHSR labeled with 7H4MC-ethylglycine at V268^6.40; assay: as above; format: biochemical, human; conditions: 6.4, ligand 10 µM, POPC:POPG nanodiscs, 15°C, ex 320 nm
Excerpt: as §1, §2

[5] = system: GHSR labeled with 7H4MC-ethylglycine at Y232^5.58; assay: as above; format: biochemical, human; conditions: for H parameter: 5.58, ligand 10 µM, POPC:POPG nanodiscs, 15°C, ex 320 nm
Excerpt: as §1, §2

GHSR [6] = conditions: ref M'Kadmi et al., 2015; cited from earlier work
7H4MC-labeled GHSR = assay: Hydration parameter H from 7H4MC fluorescence emission, several positions together; format: biochemical, human; conditions: any of the positions considered; saturating ligand (10 µM)
Excerpt: as §1
Figure 2. Local hydration of growth hormone secretagogue receptor (GHSR) as a function of ligands. […] All ligands were used at a 10 µM concentration. […] The spectra were recorded in the absence of ligand. […] The excitation wavelength was set to 320 nm with an emission intensity recorded between 340 and 600 nm. […] The excitation wavelength was set to 320 nm with an emission intensity recorded between 340 and 600 nm. […]

isolated GHSR = conditions: ref Mary et al., 2012; Damian et al., 2015; cited from earlier work
Excerpt: We then used 7H4MC fluorescence to monitor the impact of ligand binding on the hydration pattern of GHSR.

GHSR [7] = conditions: ref Ferré et al., 2019; cited from earlier work
Procedure: For labeling with 7H4MC-ethylglycine, the TAG amber codon was introduced at the positions indicated in Figure 1A by site-directed mutagenesis with the pET21a expression vector encoding human GHSR fused to the α5 integrin ([Damian et al., 2012]). The UAA solution was prepared by dissolving 263 mg of 7H4MC-ethylglycine in 10 mL 200 mM KOH solution and filter-sterilizing. […] Cultures were grown at 37°C ...

GHSR1a (Homo sapiens) = GHSR1a (Homo sapiens) (UniProt Q92847); conditions: cited from earlier work
GHSR (Homo sapiens) [8] = molecular target: GHSR (Homo sapiens) (UniProt Q92847); conditions: cited from earlier work
GHSR (Homo sapiens) [9] = molecular target: GHSR (Homo sapiens) (UniProt Q92847); assay: FRET; conditions: cited from earlier work
GHSR (Homo sapiens) [10] = molecular target: GHSR (Homo sapiens) (UniProt Q92847); assay: 125I-ghrelin radioligand binding; conditions: cited from earlier work
adenosine A2a receptor = conditions: ref Yen et al., 2018; cited from earlier work
Excerpt: (§3) In addition to ligands, other components in the receptor environment allosterically impact on GPCR activation and conformational dynamics. […] Among the lipids reported to affect GPCR signaling such as cholesterol ([Casiraghi et al., 2016]; [Zocher et al., 2012]) or charged phospholipids ([Strohman et al., 2019]; [Daw ...

ghrelin receptor = conditions: ref Damian et al., 2021; cited from earlier work
Excerpt: as §3

neurotensin receptor 1 = conditions: ref Yen et al., 2018; cited from earlier work
Excerpt: as §3

β1-adrenergic receptor = conditions: ref Yen et al., 2018; cited from earlier work
Excerpt: as §3

GHSR [11] = molecular target: T1, GHSR; assay: FRET
[12] = saturating ligand (10 µM), vs apo
[13] = 2.5% PIP2 in nanodiscs, 10 µM ghrelin

| Molecule | H parameter ([1]; replicate 1) | H parameter ([1]; replicate 2) | H parameter ([1]; replicate 3) | H parameter ([2]; replicate 1) | H parameter ([2]; replicate 2) | H parameter ([2]; replicate 3) | H parameter ([3]; replicate 1) | H parameter ([3]; replicate 2) | H parameter ([3]; replicate 3) | H parameter ([4]; replicate 1) | H parameter ([4]; replicate 2) | H parameter ([4]; replicate 3) | H parameter ([5]; replicate 1) | H parameter ([5]; replicate 2) | H parameter ([5]; replicate 3) | pharmacological class (GHSR [6]) | further results |
| --- | --- | --- | --- | --- | --- | --- | --- | --- | --- | --- | --- | --- | --- | --- | --- | --- | --- |
| COc1ccc(Cn2c(CCc3ccccc3)nnc2[C@@H](Cc2c[nH]c3ccccc23)NC(=O)c2ccccn2)c(OC)c1 [JMV3002] | 24.24 | 22.63 | 23.15 | 67.89 | 65.22 | 66.89 | 21.56 | 20.44 | 18.97 | 66.83 | 65.42 | 67.29 | 26.59 | 27.63 | 28.26 | Gq-biased partial agonist | change in the hydration parameter at position 6.44 upon binding [1, 12]: decrease in the hydration parameter at position 6.44; change in the hydration parameter at position 5.58 upon binding [5, 12]: no change was observed for the probe at position 5.58; Gi activation and arrestin recruitment (GHSR [6]): triggers neither Gi activation nor arrestin recruitment |
| COc1ccc(Cn2c(CCc3c[nH]c4ccccc34)nnc2C(Cc2c[nH]c3ccccc23)NC(=O)c2ccccn2)c(OC)c1 (stereo not shown) [JMV3011] | 34.06 | 36.74 | 35.98 | 62.25 | 63.97 | 62.73 | 21.2 | 22.69 | 23.47 | 64.53 | 63.48 | 65.36 | 24.19 | 26.01 | 26.56 | neutral antagonist | change in the hydration parameter upon binding (7H4MC-labeled GHSR): not accompanied by a measurable change in the hydration parameter; change in the conformation of isolated GHSR (isolated GHSR): not associated with any change in the conformation of isolated GHSR |
| JMV2959 | – | – | – | – | – | – | – | – | – | – | – | – | – | – | – | – | pharmacological class (affinity chromatography ligands) (GHSR [7]): antagonist |
| ghrelin (from UniProt Q9UBU3) | – | – | – | – | – | – | – | – | – | – | – | – | – | – | – | – | Kd (GHSR1a (Homo sapiens)): 0.4 nM; Kd (GHSR (Homo sapiens) [8]): 12.5 nM; Ki (GHSR (Homo sapiens) [9]): 4.6 nM; Kd (GHSR (Homo sapiens) [10]): 4.4 nM and 2.3 nM |
| phosphatidylinositol-4,5-bisphosphate [PIP2] | – | – | – | – | – | – | – | – | – | – | – | – | – | – | – | – | effect of adding PIP2 on the H parameter for position 6.44 [1, 13]: decreased that for position 6.44; effect of adding PIP2 on the H parameter for position 5.58 [5, 13]: increased the H parameter for position 5.58; stabilization of the receptor:G protein complex (adenosine A2a receptor): stabilize the receptor:G protein complex; effect on ghrelin signaling (ghrelin receptor): allosteric regulator of ghrelin signaling; stabilization of the receptor:G protein complex (neurotensin receptor 1): stabilize the receptor:G protein complex; stabilization of the receptor:G protein complex (β1-adrenergic receptor): stabilize the receptor:G protein complex |
| GSSFLSPEHQRVQQRKESKKPPAKLQP [ghrelin] | – | – | – | – | – | – | – | – | – | – | – | – | – | – | – | – | Ki (GHSR [11]): 77 nM |
